# Experimental data published in paper PMC10066365, “Nemacol is a small molecule inhibitor of C. elegans vesicular acetylcholine transporter with anthelmintic potential” (Nature Communications, 2023).
# Values joined by “and” are separate entries in the source; they are usually repeats but may differ in a detail not shown here. Equal entries are not always repeated. Where two headings read alike, the source gives them in different places.
# Experiments:
# [1] = system: C. elegans; test: C. elegans motor phenotype scoring on solid media (Punc/jerky-unc, coiled, paralyzed), wild-type young adults; assay type: in vivo, Caenorhabditis elegans; conditions: for atypical locomotion (number of animals) / coiled (number of animals) / no phene (number of animals) / paralyzed (number of animals) / any phene: mean % fraction of young adults exhibiting any phenotype (coiled, jerky-Unc or paralyzed): one hour; for atypical locomotion (number of animals) / coiled (number of animals) / no phene (number of animals) / paralyzed (number of animals): young adults, 20 animals per trial, single technical replicate; for any phene: mean % fraction of young adults exhibiting any phenotype (coiled, jerky-Unc or paralyzed): mean of three biological replicates
# [2] = target: T1, rat VAChT (Rattus norvegicus, UniProt Q62666); test: [3H]Vesamicol competitive radioligand binding, PC12 cells expressing ratVAChT
# T1 construct: expressed in transfected cells; host or cells: rat PC12 (PC12 A123.7) cells, stably transfected; shared by Dr. Ali Roghani (Texas Tech University)
# T1 sequence (Q62666 1-530): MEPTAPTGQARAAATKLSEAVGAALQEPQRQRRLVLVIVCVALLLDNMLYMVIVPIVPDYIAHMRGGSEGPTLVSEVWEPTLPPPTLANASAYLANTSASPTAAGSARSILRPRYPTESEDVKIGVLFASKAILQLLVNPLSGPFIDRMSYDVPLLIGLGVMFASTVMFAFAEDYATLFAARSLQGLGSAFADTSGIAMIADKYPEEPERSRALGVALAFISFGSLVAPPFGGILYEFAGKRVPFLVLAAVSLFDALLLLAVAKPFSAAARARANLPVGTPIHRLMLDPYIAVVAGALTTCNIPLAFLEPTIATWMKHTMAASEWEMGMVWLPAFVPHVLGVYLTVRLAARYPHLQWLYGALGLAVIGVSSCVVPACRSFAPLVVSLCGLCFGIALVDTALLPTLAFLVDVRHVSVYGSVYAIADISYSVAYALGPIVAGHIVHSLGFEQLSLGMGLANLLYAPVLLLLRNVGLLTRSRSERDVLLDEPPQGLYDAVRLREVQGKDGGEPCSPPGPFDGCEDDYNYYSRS
# [3] = system: Dirofilaria immitis microfilariae; test: Dirofilaria immitis microfilariae immobility assay (DiroImager, 72 h); conditions: Dirofilaria immitis microfilariae
# Procedure, shortened: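 Motility read after 72 h drug exposure with an image-based high-throughput plate imager, 1% DMSO medium serving as negative control. Missouri-isolate microfilariae, roughly 250 per well, freshly purified and cultured in supplemented RPMI 1640.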
# [4] = system: Dirofilaria immitis L3/L4; test: Dirofilaria immitis L3/L4 motility assay (DiroImager, 72 h); conditions: Dirofilaria immitis L4
# [5] = system: Pristionchus pacificus; test: Pristionchus pacificus motor disruption dose-response on solid media, 1 h; conditions: for mean % any phene: any phenotype (coiled, jerky-Unc or paralyzed) at one hour, mean of three biological replicates; for rep 1 atypical locomotion / rep 1 coiled / rep 1 no phene / rep 1 paralyzed / rep 2 atypical locomotion / rep 2 coiled / rep 2 no phene / rep 2 paralyzed / rep 3 atypical locomotion / rep 3 coiled / rep 3 no phene / rep 3 paralyzed: count of 20 animals per trial, one hour
compound,measurement,setting,value
CC1CCC(N2CCN(c3ccccc3)CC2)CC1 (stereo not shown) [Nemacol-50],atypical locomotion (number of animals),[1]; 3.75uM,8 and 14 and 7 and 18 and 16
same,coiled (number of animals),[1]; 3.75uM,0 and 1
same,no phene (number of animals),[1]; 3.75uM,11 and 5 and 12 and 13 and 2 and 4
same,paralyzed (number of animals),[1]; 3.75uM,1 and 0
same,"any phene: mean % fraction of young adults exhibiting any phenotype (coiled, jerky-Unc or paralyzed)",[1]; 3.75uM,60.8333%
same,atypical locomotion (number of animals),[1]; 15uM,10 and 12 and 11 and 17 and 7 and 5
same,coiled (number of animals),[1]; 15uM,1 and 0 and 7 and 3 and 4
same,no phene (number of animals),[1]; 15uM,2 and 0
same,paralyzed (number of animals),[1]; 15uM,7 and 8 and 0 and 9 and 12
same,"any phene: mean % fraction of young adults exhibiting any phenotype (coiled, jerky-Unc or paralyzed)",[1]; 15uM,96.6667%
same,atypical locomotion (number of animals),[1]; 60uM,1 and 3 and 0 and 6 and 5 and 2
same,coiled (number of animals),[1]; 60uM,8 and 11 and 14 and 5 and 6
same,no phene (number of animals),[1]; 60uM,1 and 0
same,paralyzed (number of animals),[1]; 60uM,10 and 6 and 12
same,"any phene: mean % fraction of young adults exhibiting any phenotype (coiled, jerky-Unc or paralyzed)",[1]; 60uM,99.1667%
same,EC50,"[1]; Caenorhabditis elegans, any motor phenotype after 1 h on solid media, ± 95% CI, read-out: C. elegans - motor disruption EC50",3 ± 1.3 µM
same,Ki,"[2]; [3H]Vesamicol binding, PC12, experiment 1, read-out: expt 1 Ki (M) vs. rat VAChT (PC12)",1.82e-06 M
same,Ki,"[2]; [3H]Vesamicol binding, PC12, experiment 2, read-out: expt 2 Ki (M) vs. rat VAChT (PC12)",2.05e-06 M
same,Ki,"[2]; [3H]Vesamicol binding, PC12, third experiment column (date expt 3), read-out: expt 2 Ki (M) vs. rat VAChT (PC12)",1.95e-06 M
same,Ki,"[2]; [3H]Vesamicol binding, rat VAChT (PC12), mean of 2-3 experiments, read-out: mean Ki",1.94e-06 M
same,Ki,"[2]; [3H]Vesamicol displacement, mean, read-out: ratVAChT Ki",1.94e-06 M
same,"% effect (motility), DIROIM MF",[3]; 0.016 µM,0%
same,"% effect (motility), DIROIM MF",[3]; 0.08 µM,0%
same,"% effect (motility), DIROIM MF",[3]; 0.4 µM,0%
same,"% effect (motility), DIROIM MF",[3]; 2 µM,0%
same,"% effect (motility), DIROIM MF",[3]; 10 µM,0%
same,"% effect (motility), DIROIM L4",[4]; 2 µM,0%
same,"% effect (motility), DIROIM L4",[4]; 10 µM,0%
same,"% effect (motility), DIROIM L4",[4]; 50 µM,5%
same,EC50,"[5]; Pristionchus pacificus, 1 h, read-out: P. pacificus motor disruption EC50",49.2 µM
same,mean % any phene,[5]; conc 3.75,0%
same,rep 1 atypical locomotion,[5]; conc 3.75,0
same,rep 1 coiled,[5]; conc 3.75,0
same,rep 1 no phene,[5]; conc 3.75,20
same,rep 1 paralyzed,[5]; conc 3.75,0
same,rep 2 atypical locomotion,[5]; conc 3.75,0
same,rep 2 coiled,[5]; conc 3.75,0
same,rep 2 no phene,[5]; conc 3.75,20
same,rep 2 paralyzed,[5]; conc 3.75,0
same,rep 3 atypical locomotion,[5]; conc 3.75,0
same,rep 3 coiled,[5]; conc 3.75,0
same,rep 3 no phene,[5]; conc 3.75,20
same,rep 3 paralyzed,[5]; conc 3.75,0
same,mean % any phene,[5]; conc 15,0%
same,rep 1 atypical locomotion,[5]; conc 15,0
same,rep 1 coiled,[5]; conc 15,0
same,rep 1 no phene,[5]; conc 15,20
same,rep 1 paralyzed,[5]; conc 15,0
same,rep 2 atypical locomotion,[5]; conc 15,0
same,rep 2 coiled,[5]; conc 15,0
same,rep 2 no phene,[5]; conc 15,20
same,rep 2 paralyzed,[5]; conc 15,0
same,rep 3 atypical locomotion,[5]; conc 15,0
same,rep 3 coiled,[5]; conc 15,0
same,rep 3 no phene,[5]; conc 15,20
same,rep 3 paralyzed,[5]; conc 15,0
same,mean % any phene,[5]; conc 60,98.3333%
same,rep 1 atypical locomotion,[5]; conc 60,9 and 5
same,rep 1 coiled,[5]; conc 60,4 and 2
same,rep 1 no phene,[5]; conc 60,0
same,rep 1 paralyzed,[5]; conc 60,7 and 13
same,rep 2 atypical locomotion,[5]; conc 60,7 and 10
same,rep 2 coiled,[5]; conc 60,4 and 2
same,rep 2 no phene,[5]; conc 60,0
same,rep 2 paralyzed,[5]; conc 60,9 and 8
same,rep 3 atypical locomotion,[5]; conc 60,11 and 13
same,rep 3 paralyzed,[5]; conc 60,6 and 4
